# From patent US20250154171A1, “RAS INHIBITORS” (Revolution Medicines, Inc., priority 2023, published 2025)
# Like-named read-outs stand apart in the source and are kept apart here.
# Key:
# [1] = system: K-RasG12V (Capan-1); assay: Potency assay: cellular pERK (AlphaLISA SureFire or In-Cell Western), Capan-1; assay type: cell-based; conditions: Homo sapiens; Capan-1 cells; 4 hours; in at least one of the assays (AlphaLISA or In-Cell Western); read-out: pERK IC50 with respect to K-RasG12V (Capan-1)
# From the text: The purpose of this assay is to measure the ability of test compounds to inhibit K-Ras in cells. Activated K-Ras induces increased phosphorylation of ERK at Threonine 202 and Tyrosine 204 (PERK). This procedure measures a decrease in cellular pERK in response to test compounds. The procedure described below in Capan-1 cells is applicable to K-RasG12V.
# Note: This protocol may be executed substituting other cell lines to characterize inhibitors of other RAS variants, including, for example, NCI-H358 (K-Ras G12C), AsPC-1 (K-Ras G12D), Capan-1 (K-Ras G12V), or NCI-H1355 (K-Ras G13C).
# Cells are grown and maintained using media and procedures recommended by the ATCC. On the day prior to compound addition, cells are plated in 384-well cell culture plates (40 μl/well) and grown overnight in a 37° C., 5% CO2 incubator. Test compounds are prepared in 10, 3-fold dilutions in DMSO, with a high concentration of 10 mM. On the day of assay, 40 nL of test compound is added to each well of cell culture plate using an Echo550 liquid handler (LabCyte®). Concentrations of test compound are tested in duplicate. After compound addition, cells are incubated 4 hours at 37° C., 5% CO2. Following incubation, culture medium is removed, and cells are washed once with phosphate buffered saline.
# In some experiments, cellular pERK level is determined using the AlphaLISA SureFire Ultra p-ERK1/2 Assay Kit (PerkinElmer). Cells are lysed in 25 μL lysis buffer, with shaking at 600 RPM at room temperature. Lysate (10 μL) is transferred to a 384-well Opti-plate (PerkinElmer) and 5 μL acceptor mix is added. After a 2-hour incubation in the dark, 5 μL donor mix is added, plate is sealed, and incubated 2 hours at room temperature. Signal is read on an Envision plate reader (PerkinElmer) using standard AlphaLISA settings. Analysis of raw data is carried out in Excel (Microsoft) and Prism (GraphPad). Signal is plotted vs. the decadal logarithm of compound concentration, and IC50 is determined by fitting a 4-parameter sigmoidal concentration response model.
# In other experiments, cellular pERK is determined by In-Cell Western. Following compound treatment, cells are washed twice with 200 μL tris buffered saline (TBS) and fixed for 15 minutes with 150 μL 4% paraformaldehyde in TBS. Fixed cells are washed 4 times for 5 minutes with TBS containing 0.1% Triton X-100 (TBST) and then blocked with 100 μL Odyssey blocking buffer (LI-COR) for 60 minutes at room temperature. Primary antibody (PERK, CST-4370, Cell Signaling Technology) is diluted 1:200 in blocking buffer, and 50 μL is added to each well and incubated overnight at 4° C. Cells are washed 4 times for 5 minutes with TBST. Secondary antibody (IR-800CW rabbit, LI-COR, diluted 1:800) and DNA stain DRAQ5 (LI-COR, diluted 1:2000) are added and incubated 1-2 hours at room temperature. Cells are washed 4 times for 5 minutes with TBST. Plates are scanned on a Li—COR Odyssey CLx Imager. Analysis of raw data is carried out in Excel (Microsoft) and Prism (GraphPad). Signal is plotted vs. the decadal logarithm of compound concentration, and IC50 is determined by fitting a 4-parameter sigmoidal concentration response model.
molecule,measurement,setting,value
CO[C@@H](C)c1ncccc1-c1c2c3cc(ccc3n1CCOC1CCOCC1)-c1csc(n1)[C@@H](N1CCOC[C@@H]1C#N)[C@H](NC(=O)OC(C)(C)C)C(=O)N1CCC[C@H](N1)C(=O)OC(C)(C)C2,"ring closure, isolated yield","from CO[C@@H](C)c1ncccc1-c1c(CC(C)(C)O)c2cc(-c3csc([C@H]([C@H](NC(=O)OC(C)(C)C)C(=O)N4CCC[C@@H](C(=O)O)N4)N4CCOC[C@@H]4C#N)n3)ccc2n1CCOC1CCOCC1, ester bond, 18-membered ring, EDCI/HOBt/DIEA, CH2Cl2, 10.4 mM, 25.0 °C, 2.0 h",31%
"CO[C@@H](C)c1ncccc1-c1c2c3cc(ccc3n1C1CN(C3CC3)C1)-c1coc(n1)[C@@H](N1CCN(C)CC1)[C@H](NC(=O)[C@@H]1[C@@H](C)[C@H]1c1ccncn1)C(=O)N1CCC[C@H](N1)C(=O)OCC(C)(C)C2 (atropisomer, axis not shown) [Example A1104]",IC50,[1],< 650 nM
"tert-butyl ((6^4S,3S,4S,Z)-12-(5-(4-cyclopropylpiperazin-1-yl)-2-((S)-1-methoxyethyl)pyridin-3-yl)-10,10-dimethyl-3-morpholino-5,7-dioxo-11-(2-((tetrahydro-2H-pyran-4-yl)oxy)ethyl)-11H-8-oxa-6^2,6^3-diaza-2(4,2)-thiazola-1(5,3)-indola-6 (2,4)-bicyclo[3.1.1]heptanacycloundecaphane-4-yl) carbamate","ring closure, isolated yield","ester bond, 18-membered ring, EDCI/HOBt/DIEA, CH2Cl2, 4.68 mM, 30.0 °C",41%
CO[C@@H](C)c1ncc([C@@H]2CCN(C3CC3)C2)cc1-c1c2c3cc(ccc3n1CCOC1CCOCC1)-c1csc(n1)[C@@H](N1CC(C)(OC)C1)[C@H](NC(=O)OC(C)(C)C)C(=O)N1CCC[C@H](N1)C(=O)OCC(C)(C)C2,"ring closure, isolated yield","from CO[C@@H](C)c1ncc([C@@H]2CCN(C3CC3)C2)cc1-c1c(CC(C)(C)CO)c2cc(-c3csc([C@H]([C@H](NC(=O)OC(C)(C)C)C(=O)N4CCC[C@@H](C(=O)O)N4)N4CC(C)(OC)C4)n3)ccc2n1CCOC1CCOCC1, ester bond, 18-membered ring, EDCI/HOBt/DIEA, CH2Cl2, 9.4 mM, 25.0 °C, 16.0 h",43.6%
CO[C@@H](C)c1ncc(N2CCN(C3CC3)CC2)cc1-c1c2c3cc(ccc3n1CCOC1CCOCC1)-c1csc(n1)[C@@H](N1CCCC1)[C@H](NC(=O)OC(C)(C)C)C(=O)N1CCC[C@H](N1)C(=O)OCC(C)(C)C2,"ring closure, isolated yield","from CO[C@@H](C)c1ncc(N2CCN(C3CC3)CC2)cc1-c1c(CC(C)(C)CO)c2cc(-c3csc([C@H]([C@H](NC(=O)OC(C)(C)C)C(=O)N4CCC[C@@H](C(=O)O)N4)N4CCCC4)n3)ccc2n1CCOC1CCOCC1, ester bond, 18-membered ring, EDCI/HOBt/DIEA, CH2Cl2, 9.59 mM, 25.0 °C",54.7%
"CO[C@@H](C)c1ncccc1-c1c2c3cc(ccc3n1[C@H]1C[C@@H](C#N)C1)-c1csc(n1)[C@@H](N1CC3(CCCN3C)C1)[C@H](NC(=O)[C@H]1[C@H](C)[C@@H]1C)C(=O)N1CCC[C@H](N1)C(=O)OCC(C)(C)C2 (atropisomer, axis not shown) [Example A983]",IC50,[1],< 650 nM
CO[C@@H](C)c1ncc(N2CCN(C3CC3)CC2)cc1-c1c2c3cc(ccc3n1CCO[C@H]1CCOC(C)(C)C1)-c1coc(n1)[C@@H](N1CC3(COC3)C1)[C@H](NC(=O)OC(C)(C)C)C(=O)N1CC3CC(C3)(N1)C(=O)OCC(C)(C)C2,"ring closure, isolated yield","from CO[C@@H](C)c1ncc(N2CCN(C3CC3)CC2)cc1-c1c(CC(C)(C)CO)c2cc(-c3coc([C@H]([C@H](NC(=O)OC(C)(C)C)C(=O)N4CC5CC(C(=O)O)(C5)N4)N4CC5(COC5)C4)n3)ccc2n1CCO[C@H]1CCOC(C)(C)C1, ester bond, 18-membered ring, PyBOP/DMAP/DIEA, CH2Cl2, 1.83 mM, 20.0 °C, 15.0 h",62.5%
CO[C@@H](C)c1ncccc1-c1c2c3cc(ccc3n1[C@H]1C[C@@H](C#N)C1)-c1coc(n1)[C@@H](OCc1ccccn1)[C@H](NC(=O)[C@H]1[C@H](C)[C@@H]1C)C(=O)N1N[C@H](C(=O)OCC(C)(C)C2)C2CC1C2 [Example A1174],IC50,[1],< 650 nM
"CO[C@@H](C)c1ncccc1-c1c2c3cc(ccc3n1C1CN(C3CC3)C1)-c1csc(n1)[C@@H](N1CC3(CCN3C3COC3)C1)[C@H](NC(=O)[C@@H]1[C@@H](C)[C@H]1c1ccncn1)C(=O)N1CCC[C@H](N1)C(=O)OCC(C)(C)C2 (atropisomer, axis not shown) [Example A1076]",IC50,[1],< 650 nM
"tert-butyl ((6^3S,3R,4S)-1^2-(5-(4-cyclopropylpiperazin-1-yl)-2-((S)-1-methoxyethyl)pyridin-3-yl)-3-ethoxy-10,10-dimethyl-5,7-dioxo-1^1-(2-((tetrahydro-2H-pyran-4-yl)oxy)ethyl)-6^1,6^2,6^3,6^4,6^5,6^6-hexahydro-1^1H-8-oxa-2 (5,2)-oxazola-1(5,3)-indola-6(1,3)-pyridazinacycloundecaphane-4-yl) carbamate","ring closure, isolated yield","cc_pd bond, 18-membered ring, XPhos Pd G3/XPhos/K3PO4, toluene/dioxane/H2O, 53.0 mM, 80.0 °C",16.3%
"CO[C@@H](C)c1ncccc1-c1c2c3cc(ccc3n1[C@H]1C[C@@H](C#N)C1)-c1csc(n1)[C@@H](N1CC3(CCCN3)C1)[C@H](NC(=O)[C@H]1[C@H](C)[C@@H]1C)C(=O)N1CCC[C@H](N1)C(=O)OCC(C)(C)C2 (atropisomer, axis not shown) [Example A1168]",IC50,[1],< 650 nM
CO[C@@H](C)c1ncc(N2CCN(C3CC3)CC2)cc1-c1c2c3cc(ccc3n1CCOC1CCOCC1)-c1csc(n1)[C@@H](N1CC3(COC3)C1)[C@H](NC(=O)OC(C)(C)C)C(=O)N1CCC[C@H](N1)C(=O)OCC(C)(C)C2,"ring closure, isolated yield","from CO[C@@H](C)c1ncc(N2CCN(C3CC3)CC2)cc1-c1c(CC(C)(C)CO)c2cc(-c3csc([C@H]([C@H](NC(=O)OC(C)(C)C)C(=O)N4CCC[C@@H](C(=O)O)N4)N4CC5(COC5)C4)n3)ccc2n1CCOC1CCOCC1, ester bond, 18-membered ring, EDCI/HOBt/DIEA, CH2Cl2, 9.35 mM, 25.0 °C",27.3%
"CO[C@@H](C)c1ncccc1-c1c2c3cc(ccc3n1C1CN(C3CC3)C1)-c1coc(n1)[C@@H](N1CC3(CCCN3C)C1)[C@H](NC(=O)[C@@H]1[C@@H](C)[C@H]1c1ccncn1)C(=O)N1CCC[C@H](N1)C(=O)OCC(C)(C)C2 (atropisomer, axis not shown) [Example A1086]",IC50,[1],< 650 nM
CO[C@@H](C)c1ncccc1-c1c2c3cc(ccc3n1CCO[C@H]1CCOC(C)(C)C1)-c1coc(n1)C[C@H](NC(=O)OC(C)(C)C)C(=O)N1N[C@H](C(=O)OCC(C)(C)C2)C2CC1C2,"ring closure, isolated yield","from CO[C@@H](C)c1ncccc1-c1c(CC(C)(C)CO)c2cc(-c3coc(C[C@H](NC(=O)OC(C)(C)C)C(=O)N4N[C@H](C(=O)O)C5CC4C5)n3)ccc2n1CCO[C@H]1CCOC(C)(C)C1, ester bond, 18-membered ring, EDCI/HOBt/DIEA, MeCN, 11.5 mM, 35.0 °C, 2.0 h",30.6%
"CO[C@@H](C)c1ncccc1-c1c2c3cc(ccc3n1C1CN(C3CC3)C1)-c1csc(n1)[C@@H](N1CC3(CCN3C)C1)[C@H](NC(=O)[C@H]1[C@H](C)[C@@H]1C)C(=O)N1CCC[C@H](N1)C(=O)OCC(C)(C)C2 (atropisomer, axis not shown) [Example A1191]",IC50,[1],< 650 nM
CO[C@@H](C)c1ncc(N2CCN(C(=O)OCc3ccccc3)CC2)cc1-c1c2c3cc(ccc3n1CCO[C@H]1CCOC(C)(C)C1)-c1nc(co1)[C@@H](N1CCCC1)[C@H](NC(=O)OC(C)(C)C)C(=O)N1N[C@H](C(=O)OCC(C)(C)C2)C2CC1C2,"ring closure, isolated yield","from CO[C@@H](C)c1ncc(N2CCN(C(=O)OCc3ccccc3)CC2)cc1-c1c(CC(C)(C)COC(=O)[C@H]2NN(C(=O)[C@@H](NC(=O)OC(C)(C)C)[C@@H](c3coc(Br)n3)N3CCCC3)C3CC2C3)c2cc(B3OC(C)(C)C(C)(C)O3)ccc2n1CCO[C@H]1CCOC(C)(C)C1, cc_pd bond, 18-membered ring, Pd(DtBPF)Cl2/K3PO4, toluene/dioxane/H2O, 15.9 mM, 80.0 °C, 2.0 h",24%
C[C@@H]1OC[C@H](C)OCCn2c(c(CC(C)(C)CO[Si](c3ccccc3)(c3ccccc3)C(C)(C)C)c3cc(Br)ccc32)-c2cccnc21,"ring closure, isolated yield","from C[C@H](OC[C@H](C)OCCBr)c1ncccc1-c1[nH]c2ccc(Br)cc2c1CC(C)(C)CO[Si](c1ccccc1)(c1ccccc1)C(C)(C)C, amine bond, 11-membered ring, Cs2CO3, DMF, 119.0 mM, 60.0 °C, 1.0 h",76.9%
